Assays:
[1] = tested on: HEK293 cells overexpressing hTau (WT) and p300; assay: Ac-tau and p-tau Western blot in HEK293 cells treated with salicylate; type: cell-based, human; conditions: 0, 5, 10 mM salicylate for 24 hr
Experimental: To examine the effects of salicylate treatment on tau acetylation and phosphorylation, HEK293 cells overexpressing hTau (WT) and p300 were treated with sodium salicylate (SS).
FIGS. 1A-1D. Salicylate inhibits p300 and reduces ac-tau and p-tau in vitro (FIG. 1A) HEK293 cells overexpressing wild-type human tau were treated with 0, 5, 10 mM salicylate for 24 hr. Representative Western blot of four experiments. (FIG. 1B) Quantification of ac-tau and p-tau levels in HEK293 cells treated with salicylate. ac-tau/t-tau, p-tau/t-tau in non-treated cells were set as 1. n=4. **, p<0.01, ***, p<0.001 (two-tails unpaired t-test). Error bar, S.E.M. (FIG. 1C) Rat primary cortical neurons infected with lenti-hTau (WT) were treated with 0, 5, or 10 mM salicylate for 24 hr. Representative Western blot of four experiments. (FIG. 1D) Quantification of ac-tau, p-tau and p300 levels in primary neurons treated with salicylate. ac-tau/t-tau, p-tau/t-tau and p300/GAPDH in non-treated cells were set as 1. n=4. *, p<0.05, **, p<0.01, ***, p<0.001 (two-tails unpaired t-test). Error bar, S.E.M.

[2] = tested on: primary neurons, K174Q tau; assay: Tau-lowering effect of salicylate on K174Q mutant tau in primary neurons; type: cell-based; conditions: K174 mutated to glutamine
[3] = target: p300 (Homo sapiens, UniProt Q09472); conditions: recently identified; cited from earlier work
p300, sequence (Q09472 whole entry, species assumed): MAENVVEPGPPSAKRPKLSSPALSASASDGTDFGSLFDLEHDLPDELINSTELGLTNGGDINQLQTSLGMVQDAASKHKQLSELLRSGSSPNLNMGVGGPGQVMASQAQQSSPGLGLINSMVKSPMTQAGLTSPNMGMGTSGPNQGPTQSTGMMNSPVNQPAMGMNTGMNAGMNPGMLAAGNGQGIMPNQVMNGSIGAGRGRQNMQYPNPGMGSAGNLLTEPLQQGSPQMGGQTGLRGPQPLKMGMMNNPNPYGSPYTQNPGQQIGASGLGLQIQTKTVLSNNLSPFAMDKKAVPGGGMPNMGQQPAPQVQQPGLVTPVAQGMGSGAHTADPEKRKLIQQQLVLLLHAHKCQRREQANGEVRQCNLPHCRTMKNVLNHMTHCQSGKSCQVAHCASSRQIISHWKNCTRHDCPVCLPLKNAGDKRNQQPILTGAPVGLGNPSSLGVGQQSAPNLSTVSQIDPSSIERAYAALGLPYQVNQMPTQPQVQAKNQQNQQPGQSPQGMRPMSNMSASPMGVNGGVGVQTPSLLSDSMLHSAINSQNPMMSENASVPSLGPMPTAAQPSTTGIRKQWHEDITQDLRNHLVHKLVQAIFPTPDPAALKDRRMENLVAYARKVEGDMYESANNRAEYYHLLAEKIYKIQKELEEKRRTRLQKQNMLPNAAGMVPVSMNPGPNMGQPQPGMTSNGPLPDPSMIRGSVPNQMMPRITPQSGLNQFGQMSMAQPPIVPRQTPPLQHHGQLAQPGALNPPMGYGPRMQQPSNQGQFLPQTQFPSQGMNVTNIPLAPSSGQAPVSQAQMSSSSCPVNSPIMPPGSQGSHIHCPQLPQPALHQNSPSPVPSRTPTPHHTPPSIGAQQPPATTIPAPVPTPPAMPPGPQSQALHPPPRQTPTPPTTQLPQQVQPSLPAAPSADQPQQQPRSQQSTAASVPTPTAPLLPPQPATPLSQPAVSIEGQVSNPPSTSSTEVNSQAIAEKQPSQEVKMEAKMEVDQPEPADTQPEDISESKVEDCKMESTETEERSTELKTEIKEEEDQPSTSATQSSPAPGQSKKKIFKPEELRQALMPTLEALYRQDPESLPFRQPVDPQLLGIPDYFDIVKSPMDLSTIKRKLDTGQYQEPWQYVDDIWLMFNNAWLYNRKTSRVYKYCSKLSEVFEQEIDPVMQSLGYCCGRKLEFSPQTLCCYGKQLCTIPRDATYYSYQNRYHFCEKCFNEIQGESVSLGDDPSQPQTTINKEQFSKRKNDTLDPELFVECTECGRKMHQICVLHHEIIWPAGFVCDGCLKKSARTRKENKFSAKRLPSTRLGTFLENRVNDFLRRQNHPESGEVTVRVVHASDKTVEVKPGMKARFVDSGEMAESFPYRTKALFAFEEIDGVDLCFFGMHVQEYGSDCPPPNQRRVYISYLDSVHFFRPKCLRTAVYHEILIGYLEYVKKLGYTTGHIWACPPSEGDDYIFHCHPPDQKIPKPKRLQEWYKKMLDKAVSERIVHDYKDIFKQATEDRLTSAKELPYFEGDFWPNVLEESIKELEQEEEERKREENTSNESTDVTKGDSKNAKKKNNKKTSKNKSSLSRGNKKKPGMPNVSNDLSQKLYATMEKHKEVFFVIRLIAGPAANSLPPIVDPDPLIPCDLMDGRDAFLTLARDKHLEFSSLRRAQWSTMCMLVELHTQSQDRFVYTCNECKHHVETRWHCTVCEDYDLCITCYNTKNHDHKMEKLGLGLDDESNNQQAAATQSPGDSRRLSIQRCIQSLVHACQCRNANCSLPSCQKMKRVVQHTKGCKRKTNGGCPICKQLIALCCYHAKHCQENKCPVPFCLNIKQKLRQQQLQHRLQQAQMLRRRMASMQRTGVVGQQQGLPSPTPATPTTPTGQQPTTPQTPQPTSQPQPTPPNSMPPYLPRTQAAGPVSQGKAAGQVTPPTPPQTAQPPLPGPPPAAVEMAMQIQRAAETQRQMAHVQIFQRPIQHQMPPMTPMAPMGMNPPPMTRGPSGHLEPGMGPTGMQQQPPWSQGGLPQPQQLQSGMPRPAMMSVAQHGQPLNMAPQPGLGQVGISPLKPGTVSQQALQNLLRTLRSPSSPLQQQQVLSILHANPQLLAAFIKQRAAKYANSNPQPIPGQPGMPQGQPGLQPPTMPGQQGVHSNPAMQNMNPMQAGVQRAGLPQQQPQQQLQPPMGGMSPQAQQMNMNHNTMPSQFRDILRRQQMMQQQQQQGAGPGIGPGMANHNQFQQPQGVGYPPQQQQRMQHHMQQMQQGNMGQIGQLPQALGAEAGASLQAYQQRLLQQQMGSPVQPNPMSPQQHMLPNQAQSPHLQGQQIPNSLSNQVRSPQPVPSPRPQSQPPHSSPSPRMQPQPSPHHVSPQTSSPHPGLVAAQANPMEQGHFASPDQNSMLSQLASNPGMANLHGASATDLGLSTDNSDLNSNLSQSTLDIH

[4] = PK analyses of salsalate (SSA) and salicylic acid (SA) in brain and plasma; type: in vivo, C57B6 mice; conditions: oral gavage, single bolus dose, mice
Experimental: SSA was administered to C57B6 mice via oral gavage as a single bolus dose. Mice were sacrificed at predetermined time points and plasma and brain tissue samples were harvested for analysis by PPL labs (Redwood City, Calif., USA). SSA and its metabolite SA were measured simultaneously using oxopropanoyloxy benzoic acid as an internal standard solution. To extract SSA/SA from brain, 200 μl of 50% Acetonitrile in 0.1% formic acid was added to 30-50 mg of cortical tissue, followed by homogenization and vortexing. After addition of 200 μl of the internal standard solution, the samples were centrifuged and the supernatants were transferred for injection. To measure SSA/SA in the plasma, 10 μl of plasma samples were mixed with 90 μl H2O and 100 μl of Internal Standard Solution, followed by centrifugation and injection. HPLC was performed using a C18 column following a gradient program (10% to 90% acetonitrile over a period of 6 min) with a flow rate of 0.4 ml/min. The injection volume was ˜5 μl. Mass spectrometry analyses were performed on 3200 Q TRAP system (AB SCIEX, Framingham, Mass. USA.) using an MQL algorithm.

[5] = tested on: PS19 mice; assay: Fixed Location Dry Maze; type: in vivo, mouse; conditions: 225 mg/kg oral gavage for 8 weeks; 7-8 month old PS19 mice
Experimental: For SSA treatment experiments, only female PS19 mice obtained from Jackson Laboratory were used. The mice were housed in a conventional facility at Stanford University (Palo Alto, Calif.<USA) with a 12-h light/dark reverse cycle and ad libitum access to food and water. All behavior experiments of PS19 mice were performed during daylight hours and carried out under Stanford University School of Medicine, Institutional Animal Care and Use Committee-approved guidelines.
The Fixed Location Dry Maze is also called DMP dry maze (Faizi, M., et al. Brain Behav 2, 142-154 (2012)). Experiments were performed at an animal facility at Stanford University (Palo Alto, Calif.). Mice were housed at a standard temperature (22±1° C.), in a reverse light-controlled environment (lights off from 8:30 am to 8:30 pm) with ad libitum access to food and water. Animals are group-housed with minimal enrichment such as shelter (paper towel tubes and nestlets). The experimenter remained blinded to the experimental groups throughout the entire study. […] The subjects were monitored by a video tracking system directly above maze, and the parameters were measured using the computer software Ethovision. […] Time in each quadrant was recorded and memory was assessed by the time spent in the target quadrant versus the other three quadrants. […]

[6] = tested on: PS19 mice; assay: Hippocampal volume and NeuN-positive cell number; type: in vivo, mouse; conditions: 10 months old PS19 mice vs wild-type littermates
Source text: The neurodegeneration phenotype of PS19 mice was examined by measuring hippocampal volume and NeuN-positive cell number. […] (FIG. 4A) 10 months old PS19 mice have significant hippocampal volume loss compared to wild-type, which is absent in SSA-treated group. Left. Representative nissl staining of hippocampus from vehicle-treated WT, vehicle-treated PS19 and SSA-treated PS19 mice. ***, p<0.001, *, p<0.05 (two-tails unpaired t-test). Error bar, S.E.M. Scale bar, 500 um. (FIG. 4B) 10 months old PS19 mice have significant reduction of NeuN-positive cells compared to wild-type, which is absent in SSA-treated group. Left. Representative NeuN staining of hippocampus from vehicle-treated WT, vehicle-treated PS19 and SSA-treated PS19 mice. **, p<0.01 (two-tails unpaired t-test). Error bar, S.E.M. (FIG. 4C) NeuN number positively correlates with time spent in target quadrant in dry maze. p=0.0142 (linear regression).

[7] = tested on: PS19 mice; assay: Western blot of ac-tau, p-tau, t-tau, p300 and ac-H2A in hippocampal/brain lysate; type: in vivo, mouse
Source text: The levels of ac-tau and phospho-tau in the hippocampal lysate of PS19 mice were examined (FIG. 5A).
Salsalate treatment in PS19 mice inhibits p300 activity and reduces tau acetylation. (FIG. 5A) Representative Western blot showing levels of ac-tau, p-tau, t-tau and GAPDH in brain lysate of PS19 mice treated with salsalate (SSA) or vehicle (veh). Wild-type (WT) littermates treated with vehicle and tau knockout (KO) mice were included as controls. (FIG. 5B) Quantification of ac-tau and p-tau levels in brain lysate of PS19 mice treated with vehicle or salsalate. ac-tau/t-tau and p-tau/t-tau in vehicle-treated group were set as 1. n=8. **, p<0.01 (two-tails unpaired t-test). Error bar, S.E.M. (FIG. 5C) Representative Western blot showing levels of p300, ac-H2A(K5), H2A and GAPDH in brain lysate of PS19 mice treated with salsalate (SSA) or vehicle (veh). (FIG. 5D) Quantification of p300 and ac-H2A levels in brain lysate of PS19 mice treated with vehicle or salsalate. p300/GAPDH and ac-H2A/H2A in vehicle-treated group were set as 1. n=8. *, p<0.05 (two-tails unpaired t-test). Error bar, S.E.M.

[8] = tested on: AAV-K174Q-injected mice; assay: SSA treatment of AAV-K174Q-injected mice; type: in vivo, mouse
Source text: FIG. 8 provides (Left) an immunoblot analysis of ac-H2AK5, H2A, p-tau (AT8 and PHF-1), t-tau (HT7) and GAPDH in mice infected with AAV-K174Q and treated with SSA or vehicle; and (Right) a graph depicting the results of a quantification of ac-H2AK5 and H2A. n=11 (vehicle) or 10 (SSA) mice; *P<0.05, unpaired Student's t-test; values are mean±s.e.m.
ELISA analysis of K174Q tau after SSA treatment. n=11 (vehicle) or 10 (SSA) mice; ns, not significant; P=0.3647; unpaired Student's t-test; values are mean±s.e.m.
FIG. 10 provides graphs showing that levels of PHF1-positive p-tau relative to t-tau, or AT8-positive p-tau normalized by t-tau or GAPDH, were not affected by SSA treatment. Levels of PHF-1-positive p-tau normalized to HT7 (left) or AT8-positive p-tau normalized to HT7 (middle) or GAPDH (right) after SSA treatment. n=11 (vehicle) or 10 (SSA) mice; ns, not significant, unpaired Student's t-test. Values are mean±s.e.m.
Nissl staining (left) and hippocampal volume (right) in mice expressing K174Q tau after SSA treatment. Scale bars, 500 μm; n=11 (vehicle) or 10 (SSA) mice; ns, not significant, unpaired Student's t-test. Values are mean±s.e.m.
For AAV-Tau (adeno-associated virus encoding Tau) injection experiments, only male mice were purchased from Jackson Laboratory with the same age and genetic background (C57BL/6) and used for all the experiments. The mice were housed in a pathogen-free barrier facility at UCSF with a 12-h light/dark cycle and ad libitum access to food and water. All behavior experiments were performed during daylight hours. All animal procedures were carried out under University of California, San Francisco, Institutional Animal Care and Use Committee-approved guidelines.
To determine if SSA's beneficial effects involve inhibition of ac-K174 in vivo. Two-month after injecting with AAV-K174Q, mice were treated with SSA daily as previously performed in PS19 mice. Ac-H2AK5 levels were reduced in the SSA-treated group, confirming inhibition of p300 by SSA (FIG. 8). […] Levels of PHF1-positive p-tau relative to t-tau, or AT8-positive p-tau normalized by t-tau or GAPDH, were also not affected by SSA treatment (FIG. 10).

[9] = tested on: PS19 mice; assay: NFT analysis by Gallyas silver staining; type: in vivo, mouse; conditions: female and male cohorts, age 10-11 months
Source text: FIGS. 12A and 12B provide silver staining results in neurites from neocortex and hippocampal regions for mice treated with SSA. Analysis of NFTs by Gallyas silver staining (FIG. 12A) and quantification of silver-positive cells in neurites from neocortex and hippocampal regions CA1 and CA3 (FIG. 12B) in vehicle-treated NTG mice and PS19 mice treated with vehicle or SSA. Scale bar, 250 μm (c, top); 25 μm (c, middle and bottom); n=8 mice (age 10-11 months) per genotype per treatment; *P<0.05, unpaired Student's t-test. Values are mean±s.e.m.
Prominent NFTs and dystrophic neurites, positive for Gallyas silver staining, were detected throughout the forebrains in PS19 mice (FIG. 12A).

[10] = brain lysate of PS19 mice, vs vehicle
[11] = hippocampal lysate of PS19 mice, vs vehicle-treated group
[12] = AAV-K174Q-injected mice, vs vehicle

Compound | AT8-positive phospho-tau level (p-tau/t-tau) [1] | Ac-tau level (ac-tau/t-tau) [1] | Tau-lowering effect with K174Q mutation [2] | p300 inhibition [3] | Brain penetration [4] | Memory retention in probe trial (time in target vs non-target quadrant) [5] | Spatial learning (learning curve) [5] | Hippocampal volume [6] | Number of NeuN-positive cells in hippocampal section [6] | t-tau levels in PS19 mice ([7]; PS19 mice) | p300 HAT activity as measured by levels of histone acetylation (ac-H2A/H2A) [7, 10] | p300 levels (p300/GAPDH) [7, 10] | AT-8 positive phospho-tau levels (p-tau/t-tau) [7, 11] | ac-tau levels (ac-tau/t-tau) [7, 11] | Ac-H2AK5 levels ([8]; AAV-K174Q-injected mice, SSA daily, vs vehicle) | AT8-positive p-tau normalized by t-tau or GAPDH [8, 12] | Hippocampal atrophy (hippocampal volume) [8, 12] | PHF1-positive p-tau relative to t-tau [8, 12] | Levels of t-tau (ELISA) ([8]; K174Q injected mice, vs vehicle treated controls) | Number of Gallyas silver-positive neurons and neurites in cortex and hippocampus [9]
O=C(O)c1ccccc1O [salicylate, Salicylic acid] | reduced | significantly reduced by salicylate in a dose-dependent manner | abolished the tau-lowering effects | p300 inhibitor | – | – | – | – | – | – | – | – | – | – | – | – | – | – | – | –
O=C(Oc1ccccc1C(=O)O)c1ccccc1O [salsalate] | – | – | – | – | readily penetrates into the brain | significantly rescued the deficit | did not rescue the learning deficit | did not show any hippocampal volume loss | did not show any significant difference compared to wild-type | tau-lowering effects | significant reduction of p300 HAT activity | trend of reduction in p300 levels | trend of reduction in AT-8 positive phospho-tau levels, although the difference was not significant | significantly lower ac-tau levels | reduced | not affected | failed to prevent/reduce hippocampal atrophy | not affected | failed to reduce levels of t-tau | reduced the number of Gallyas silver-positive neurons and neurites

— US10004753B2, “Methods for treating tauopathy” (The J. David Gladstone Institutes, priority 2015, dated 2018)
